In PubChem BioAssay AID330 (DTP/NCI, 2004):
Inconclusive results and toxic doses are left out. How the source made its calls: active means survival T/C of 150% or more; inactive means T/C below 125% in these data.

Test system: P388 leukemia ip, CD2F1 mice, survival T/C
Assay: NCI In Vivo Anticancer Drug Screen. Data for tumor model P388 Leukemia (intraperitoneal) in CD2F1 (CDF1) mice
Conditions: endpoint: median survival time, higher = longer survival
Outline: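 Mice carrying the transplanted tumor received test compound or vehicle. Survival was recorded in each group, and the value is the treated-group measurement divided by that of the vehicle-treated control group.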

[1] = dose: 6.25 mg/kg/injection, schedule: Q01DX009 (ip), vehicle: saline
[2] = dose: 25.0 mg/kg/injection, schedule: Q01DX009 (ip), vehicle: other
[3] = dose: 50.0 mg/kg/injection, schedule: Q01DX009 (ip), vehicle: other
[4] = dose: 100.0 mg/kg/injection, schedule: Q01DX009 (ip), vehicle: other
[5] = dose: 200.0 mg/kg/injection, schedule: Q01DX009 (ip), vehicle: other
[6] = dose: 25.0 mg/kg/injection, schedule: Q01DX009 (ip), vehicle: saline with Tween-80
[7] = dose: 50.0 mg/kg/injection, schedule: Q01DX005 (ip), vehicle: Klucel (hydroxypropylcellulose) (HPC)
[8] = dose: 100.0 mg/kg/injection, schedule: Q01DX005 (ip), vehicle: Klucel (hydroxypropylcellulose) (HPC)
[9] = dose: 200.0 mg/kg/injection, schedule: Q01DX005 (ip), vehicle: Klucel (hydroxypropylcellulose) (HPC)
[10] = dose: 50.0 mg/kg/injection, schedule: Q01DX005 (ip), vehicle: saline with Tween-80
[11] = dose: 100.0 mg/kg/injection, schedule: Q01DX005 (ip), vehicle: saline with Tween-80
[12] = dose: 200.0 mg/kg/injection, schedule: Q01DX005 (ip), vehicle: saline with Tween-80
[13] = dose: 50.0 mg/kg/injection, schedule: Q01DX009 (ip), vehicle: saline with Tween-80
[14] = dose: 100.0 mg/kg/injection, schedule: Q01DX009 (ip), vehicle: saline with Tween-80
[15] = dose: 200.0 mg/kg/injection, schedule: Q01DX009 (ip), vehicle: saline with Tween-80
[16] = dose: 60.0 mg/kg/injection, schedule: Q01DX005 (ip), vehicle: saline with Tween-80
[17] = dose: 120.0 mg/kg/injection, schedule: Q01DX005 (ip), vehicle: saline with Tween-80
[18] = dose: 240.0 mg/kg/injection, schedule: Q01DX005 (ip), vehicle: saline with Tween-80
[19] = dose: 100.0 mg/kg/injection, schedule: Q04DX002 (ip), vehicle: saline with Tween-80
[20] = dose: 200.0 mg/kg/injection, schedule: Q04DX002 (ip), vehicle: saline with Tween-80

Measured: T/C

O=c1oc(-c2cccc(-c3nc4sc5c(c4c(=O)o3)CCCC5)c2)nc2sc3c(c12)CCCC3
inactive: dose: 100.0 mg/kg/injection, schedule: Q01DX001 (ip), vehicle: Klucel (hydroxypropylcellulose) (HPC) 93 % of control | dose: 200.0 mg/kg/injection, schedule: Q01DX001 (ip), vehicle: Klucel (hydroxypropylcellulose) (HPC) 91 % of control | dose: 400.0 mg/kg/injection, schedule: Q01DX001 (ip), vehicle: Klucel (hydroxypropylcellulose) (HPC) 89 % of control

Cn1ccn(CCCCCCn2ccn(C)c2=S)c1=S
inactive: dose: 3.12 mg/kg/injection, schedule: Q01DX009 (ip), vehicle: saline 103 % of control | [1] 96 % of control | dose: 12.5 mg/kg/injection, schedule: Q01DX009 (ip), vehicle: suspension in saline 92 % of control

N#CCCNc1cc(O)c2c(c1O)C(=O)c1ccccc1C2=O
inactive: [2] 88 % of control | [3] 100 % of control | [4] 95 % of control | [5] 90 % of control

CCCCc1nc2cc(CN3CCN(C(c4ccccc4)c4ccccc4)CC3)ccc2n1CC
inactive: dose: 6.25 mg/kg/injection, schedule: Q01DX009 (ip), vehicle: saline with Tween-80 95 % of control | dose: 12.5 mg/kg/injection, schedule: Q01DX009 (ip), vehicle: saline with Tween-80 101 % of control | [6] 100 % of control

Cc1ccc(S(=O)(=O)NC(=O)N2CCc3ccccc32)cc1
inactive: [7] 105 % of control | [8] 105 % of control | [9] 93 % of control

CC1=C(O)NC(CC(=O)C(O)CO)=CN1 (stereo not drawn)
inactive: dose: 25.0 mg/kg/injection, schedule: Q01DX009 (ip), vehicle: water 101 % of control | dose: 50.0 mg/kg/injection, schedule: Q01DX009 (ip), vehicle: water 100 % of control | dose: 100.0 mg/kg/injection, schedule: Q01DX009 (ip), vehicle: water 95 % of control | dose: 200.0 mg/kg/injection, schedule: Q01DX009 (ip), vehicle: water 95 % of control | dose: 400.0 mg/kg/injection, schedule: Q01DX009 (ip), vehicle: water 111 % of control | dose: 800.0 mg/kg/injection, schedule: Q01DX009 (ip), vehicle: water 117 % of control

CCCCOC(=O)[C@@H]1O[C@H]2OC=C[C@H]21
inactive: dose: 6.25 mg/kg/injection, schedule: Q01DX005 (ip), vehicle: saline with Tween-80 100 % of control | dose: 12.5 mg/kg/injection, schedule: Q01DX005 (ip), vehicle: saline with Tween-80 106 % of control

CC(C)(C)OCC(NC(=O)OC(C)(C)C)C(=O)O (stereo not drawn)
inactive: [10] 100 % of control | [11] 103 % of control | [12] 97 % of control

Cn1nc2c(c1-c1cccnc1)CCCc1ccccc1-2
inactive: dose: 12.5 mg/kg/injection, schedule: Q01DX009 (ip), vehicle: other 113 % of control | [2] 110 % of control | [3] 110 % of control | [4] 99 % of control | [5] 100 % of control

CCOCCSc1ccccc1
inactive: [6] 99 % of control | [13] 103 % of control | [14] 112 % of control | [15] 105 % of control

COC(=O)C(=O)c1ccccc1
inactive: [13] 107 % of control | [14] 101 % of control | [15] 99 % of control | dose: 400.0 mg/kg/injection, schedule: Q01DX009 (ip), vehicle: saline with Tween-80 99 % of control

C=C1CC(OC(=O)C(C)C)C2C(=C)C(=O)O[C@@H]2C2C(=C)[C@@H](O)CC12 (stereo partly drawn)
inactive: dose: 20.0 mg/kg/injection, schedule: Q01DX005 (ip), vehicle: saline with Tween-80 102 % of control | dose: 40.0 mg/kg/injection, schedule: Q01DX005 (ip), vehicle: saline with Tween-80 106 % of control | dose: 80.0 mg/kg/injection, schedule: Q01DX005 (ip), vehicle: saline with Tween-80 115 % of control

N/C(=N\C(O)C(Cl)(Cl)Cl)SCNC(=O)NCS/C(N)=N/C(O)C(Cl)(Cl)Cl (stereo not drawn)
inactive: [10] 105 % of control | [11] 100 % of control | [12] 95 % of control

CC(C)COC(=O)C1(N)CCCC1
inactive: dose: 100.0 mg/kg/injection, schedule: Q04DX003 (ip), vehicle: saline 95 % of control | dose: 200.0 mg/kg/injection, schedule: Q04DX003 (ip), vehicle: saline 104 % of control | dose: 400.0 mg/kg/injection, schedule: Q04DX003 (ip), vehicle: saline 100 % of control

CC1(C)CN(c2ccccc2)N(CO)C1=O
inactive: dose: 6.25 mg/kg/injection, schedule: Q04DX003 (ip), vehicle: saline 101 % of control | dose: 12.5 mg/kg/injection, schedule: Q04DX003 (ip), vehicle: saline 109 % of control

CCOc1ccccc1C1N(C)CCCN1C
inactive: dose: 6.25 mg/kg/injection, schedule: Q01DX009 (ip), vehicle: saline sonified 90 % of control | dose: 12.5 mg/kg/injection, schedule: Q01DX009 (ip), vehicle: saline sonified 95 % of control | dose: 25.0 mg/kg/injection, schedule: Q01DX009 (ip), vehicle: saline sonified 86 % of control

COC(=O)Cc1onc(-c2ccccc2)c1[N+](=O)[O-]
inactive: [16] 101 % of control | [17] 101 % of control | [18] 94 % of control

C1=C2NNC(c3ccccc3)=C(c3ccccc3)C2=CCC1 (tested in a mixture with another compound)
inactive: [16] 96 % of control | [17] 92 % of control | [18] 91 % of control

COC(=O)C1=NNC2(c3ccccc3Sc3ccccc32)C1C(=O)OC (stereo not drawn)
inactive: [7] 90 % of control | [8] 92 % of control | [9] 90 % of control

CC1CCC(C(C)C)C(NC(=O)C[n+]2cccc(C(N)=O)c2)C1 (stereo not drawn)
inactive: dose: 12.5 mg/kg/injection, schedule: Q04DX002 (ip), vehicle: saline 99 % of control | dose: 25.0 mg/kg/injection, schedule: Q04DX002 (ip), vehicle: saline 105 % of control | dose: 50.0 mg/kg/injection, schedule: Q04DX002 (ip), vehicle: saline 101 % of control

Cc1cc(C(O)(C(F)(F)F)C(F)(F)F)cc(C(O)(C(F)(F)F)C(F)(F)F)c1
inactive: [7] 100 % of control | [8] 91 % of control | [9] 97 % of control

CC(C)(C)OC(=O)NCCCC(NC(=O)OCc1ccccc1)C(=O)O (stereo not drawn)
inactive: [10] 103 % of control | [11] 99 % of control | [12] 95 % of control

CC1(C)CC(=O)C=C(OCCc2ccccc2)C1
inactive: dose: 100.0 mg/kg/injection, schedule: Q04DX003 (ip), vehicle: saline with Tween-80 100 % of control | dose: 200.0 mg/kg/injection, schedule: Q04DX003 (ip), vehicle: saline with Tween-80 100 % of control | dose: 400.0 mg/kg/injection, schedule: Q04DX003 (ip), vehicle: saline with Tween-80 95 % of control

COc1cccc2c1C(=O)c1c(O)c3c(c(O)c1C2=O)C[C@@](O)(C(C)=O)C[C@@H]3OC1CC(NC(C)=O)C(O)C(C)O1 (stereo partly drawn)
active: dose: 3.13 mg/kg/injection, schedule: Q01DX009 (ip), vehicle: saline 157 % of control | dose: 12.5 mg/kg/injection, schedule: Q01DX009 (ip), vehicle: saline 166 % of control
inactive: dose: 2.0 mg/kg/injection, schedule: Q01DX009 (ip), vehicle: saline 113 % of control | [1] 109 % of control

COC(=O)[C@@]12OC[C@]34[C@H]([C@@H](O)[C@@H]1O)[C@@]1(C)CC(=O)C(O)=C(C)[C@@H]1C[C@H]3OC(=O)[C@H](OC(=O)/C=C(\C)C(C)CO)[C@@H]24 (stereo partly drawn)
inactive: dose: 0.5 mg/kg/injection, schedule: Q01DX009 (ip), vehicle: saline + alcohol 115 % of control

C1CN2CCN1CC2.[Cl][Pt]([Cl])[Cl]
inactive: [19] 117 % of control | [20] 117 % of control

Cn1ncc2c(=O)[nH]c(-c3ccccc3)nc21
inactive: [16] 105 % of control | [17] 96 % of control | [18] 105 % of control

O=[N+]([O-])c1ccc(C2OCC3CSCN32)cc1 (stereo not drawn)
inactive: [19] 107 % of control | [20] 97 % of control | dose: 400.0 mg/kg/injection, schedule: Q04DX002 (ip), vehicle: saline with Tween-80 97 % of control
